Values joined by “and” are separate entries in the source; they are usually repeats but may differ in a detail not shown here. Identical values can stand only once. Toxic doses and inconclusive results are not listed. Cut-off read from the data, not from the text of the source: active = T/C of 150% or more; inactive = T/C below 125%.
System: L1210 leukemia ip in BDF1 mice, survival T/C
Experiment: NCI In Vivo Anticancer Drug Screen. Data for tumor model L1210 Leukemia (intraperitoneal) in B6D2F1 (BDF1) mice
Conditions: endpoint: mean survival time, higher = longer survival
In short: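 Ratio derived from survival: compound-dosed mice over vehicle-dosed mice, all bearing a transplantable tumor.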

[1] = dose: 50.0 mg/kg/injection, schedule: Q04DX003 (ip), vehicle: saline
[2] = dose: 100.0 mg/kg/injection, schedule: Q01DX001 (ip), vehicle: saline
[3] = dose: 100.0 mg/kg/injection, schedule: Q04DX003 (ip), vehicle: saline
[4] = dose: 200.0 mg/kg/injection, schedule: Q01DX001 (ip), vehicle: saline
[5] = dose: 200.0 mg/kg/injection, schedule: Q04DX003 (ip), vehicle: saline
[6] = dose: 100.0 mg/kg/injection, schedule: Q04DX002 (ip), vehicle: saline with Tween-80
[7] = dose: 200.0 mg/kg/injection, schedule: Q04DX002 (ip), vehicle: saline with Tween-80
[8] = dose: 400.0 mg/kg/injection, schedule: Q04DX002 (ip), vehicle: saline with Tween-80
[9] = dose: 400.0 mg/kg/injection, schedule: Q01DX001 (ip), vehicle: saline
[10] = dose: 100.0 mg/kg/injection, schedule: Q01DX009 (ip), vehicle: Klucel (hydroxypropylcellulose) (HPC)
[11] = dose: 200.0 mg/kg/injection, schedule: Q01DX009 (ip), vehicle: Klucel (hydroxypropylcellulose) (HPC)
[12] = dose: 400.0 mg/kg/injection, schedule: Q01DX009 (ip), vehicle: Klucel (hydroxypropylcellulose) (HPC)
[13] = dose: 100.0 mg/kg/injection, schedule: Q04DX003 (ip), vehicle: saline with Tween-80

Measured: T/C

CCC(C)n1ncc2c(N(C)C)ncnc21 (stereo not drawn)
inactive: dose: 50.0 mg/kg/injection, schedule: Q01DX009 (ip), vehicle: saline 103 % of control | [1] 105 % of control | [2] 98 % of control | dose: 100.0 mg/kg/injection, schedule: Q01DX009 (ip), vehicle: saline 115 % of control | [3] 105 % of control | [4] 102 % of control | [5] 107 % of control

CN(C)C(=O)NC1CCc2ccc([N+](=O)[O-])cc21 (stereo not drawn)
inactive: [6] 97 % of control | [7] 108 % of control | [8] 119 % of control

CC(C)(C)N(N)Cc1ccccc1
inactive: [2] 106 % of control | [4] 95 % of control | [9] 104 % of control

C=CCSC1=NC(=O)C(CCCC)C(=O)N1C (stereo not drawn)
inactive: dose: 75.0 mg/kg/injection, schedule: Q01DX001 (ip), vehicle: saline 88 % of control

O=[N+]([O-])c1ccc(-c2ccc(-c3ccccc3)cc2)cc1
inactive: dose: 100.0 mg/kg/injection, schedule: Q01DX001 (ip), vehicle: acetone 98 % of control | dose: 100.0 mg/kg/injection, schedule: Q04DX003 (ip), vehicle: acetone 91 % of control | dose: 200.0 mg/kg/injection, schedule: Q01DX001 (ip), vehicle: acetone 95 % of control | dose: 200.0 mg/kg/injection, schedule: Q04DX003 (ip), vehicle: acetone 86 % of control | dose: 400.0 mg/kg/injection, schedule: Q01DX001 (ip), vehicle: acetone 92 % of control | dose: 400.0 mg/kg/injection, schedule: Q04DX003 (ip), vehicle: acetone 89 % of control

NNC(=O)CNc1ccc(Br)cc1F
inactive: dose: 100.0 mg/kg/injection, schedule: Q04DX002 (ip), vehicle: Klucel (hydroxypropylcellulose) (HPC) 104 % of control | dose: 200.0 mg/kg/injection, schedule: Q04DX002 (ip), vehicle: Klucel (hydroxypropylcellulose) (HPC) 115 % of control

CC1(C#N)c2ccccc2C=CN1C(=O)c1ccccc1 (stereo not drawn)
inactive: [10] 97 % of control | [11] 95 % of control | [12] 92 % of control

CC(=O)Nc1ccc(Cc2cc(=O)[nH]c(=O)[nH]2)cc1
inactive: dose: 9.38 mg/kg/injection, schedule: Q01DX001 (ip), vehicle: saline with Tween-80 106 % of control | dose: 18.75 mg/kg/injection, schedule: Q01DX001 (ip), vehicle: saline with Tween-80 96 % of control | dose: 37.5 mg/kg/injection, schedule: Q01DX001 (ip), vehicle: saline with Tween-80 104 % of control

COCCN=C(NCCOC)c1ccc(Nc2ncnc3nc[nH]c23)cc1
inactive: [1] 102 % of control | [3] 95 % of control

CC(C)C(CCN1CCCCC1)(CNC1=NCCN1)c1cccc2ccccc12 (stereo not drawn)
inactive: dose: 3.12 mg/kg/injection, schedule: Q04DX002 (ip), vehicle: Klucel (hydroxypropylcellulose) (HPC) 103 % of control | dose: 5.0 mg/kg/injection, schedule: Q01DX009 (ip), vehicle: Klucel (hydroxypropylcellulose) (HPC) 99 % of control | dose: 6.25 mg/kg/injection, schedule: Q04DX002 (ip), vehicle: Klucel (hydroxypropylcellulose) (HPC) 100 % of control | dose: 10.0 mg/kg/injection, schedule: Q01DX009 (ip), vehicle: Klucel (hydroxypropylcellulose) (HPC) 102 % of control | dose: 12.5 mg/kg/injection, schedule: Q04DX002 (ip), vehicle: Klucel (hydroxypropylcellulose) (HPC) 103 % of control | dose: 12.5 mg/kg/injection, schedule: Q04DX003 (ip), vehicle: Klucel (hydroxypropylcellulose) (HPC) 92 % of control | dose: 20.0 mg/kg/injection, schedule: Q01DX009 (ip), vehicle: Klucel (hydroxypropylcellulose) (HPC) 89 % of control | dose: 25.0 mg/kg/injection, schedule: Q04DX003 (ip), vehicle: Klucel (hydroxypropylcellulose) (HPC) 97 % of control | dose: 50.0 mg/kg/injection, schedule: Q04DX003 (ip), vehicle: Klucel (hydroxypropylcellulose) (HPC) 90 % of control

Cc1c2oc3c(C)ccc(C(=O)NCCN4CCCCC4)c3nc-2c(C(=O)NCCN2CCCCC2)c(N)c1=O
inactive: dose: 100.0 mg/kg/injection, schedule: Q04DX002 (ip), vehicle: saline 103 % of control | dose: 200.0 mg/kg/injection, schedule: Q04DX002 (ip), vehicle: saline 109 % of control

CCC(/C=C/C(C)C1CCC2C3CC=C4CC(O)CCC4(C)C3CCC12C)C(C)C (stereo not drawn) (tested in a mixture with another compound)
inactive: dose: 100.0 mg/kg/injection, schedule: Q01DX001 (ip), vehicle: water 98 % of control | [13] 89 % of control | [3] 103 % of control | dose: 200.0 mg/kg/injection, schedule: Q01DX001 (ip), vehicle: water 105 % of control and 94 % of control | [5] 91 % of control | dose: 400.0 mg/kg/injection, schedule: Q04DX003 (ip), vehicle: saline 91 % of control

O=S(=O)(c1ccc(Br)cc1)C(F)(F)F
inactive: [6] 101 % of control | [7] 101 % of control | [8] 86 % of control

Cc1ccc(S(=O)(=O)OC2COC3C2OC2OC(C)(C)OC23)cc1 (stereo not drawn)
inactive: [13] 112 % of control | dose: 200.0 mg/kg/injection, schedule: Q04DX003 (ip), vehicle: saline with Tween-80 101 % of control | dose: 400.0 mg/kg/injection, schedule: Q04DX003 (ip), vehicle: saline with Tween-80 106 % of control

COc1ccc(CN2CCCN(Cc3ccc(OC)cc3OC)C2c2ccc(N(CCCl)CCCl)cc2C)c(OC)c1
inactive: dose: 50.0 mg/kg/injection, schedule: Q01DX001 (ip), vehicle: carboxymethylcellulose (CMC) 106 % of control | dose: 100.0 mg/kg/injection, schedule: Q01DX001 (ip), vehicle: carboxymethylcellulose (CMC) 104 % of control | dose: 200.0 mg/kg/injection, schedule: Q01DX001 (ip), vehicle: carboxymethylcellulose (CMC) 106 % of control | dose: 400.0 mg/kg/injection, schedule: Q01DX001 (ip), vehicle: carboxymethylcellulose (CMC) 112 % of control

C=C(C)[C@@H]1CC[C@@H](C)C[C@H]1O
inactive: [2] 103 % of control | [4] 100 % of control | [9] 105 % of control

CN(C)c1ccc(N=Nc2cccc(Cl)c2)cc1
inactive: [10] 97 % of control | [11] 97 % of control | [12] 90 % of control

Reference: PubChem BioAssay AID248 (DTP/NCI, 2004)
